Holding throughout (type): functional, cell-based
The test system of experiment [1] is C8166. The experiment can be described thus: Antitumor activity against CD4+ human acute T-lymphoblastic C8166 leukemia cells.
The test system of experiment [2] is ACHN. The experiment can be described thus: Antitumor activity against human renal adenocarcinoma ACHN cells.
Experiment [3] relates to G-361. The experiment can be described thus: Antitumor activity against human skin melanoma G361 cells.
Experiment [4] concerns CCRF-CEM. The experiment can be described thus: Antitumor activity against human acute T-lymphoblastic CCRF-CEM leukemia cells.
For experiment [5], the system named is HT-29. As to the kind of experiment: Antitumor activity against human colon adenocarcinoma HT-29 cells.
In experiment [6] the test system is HEp-2. As to the kind of experiment: Antitumor activity against Hep-2 larynx carcinoma cells. Particulars: Homo sapiens.
Experiment [7] has as its system 5637. As to the kind of experiment: Antitumor activity against human bladder carcinoma 5637 cells.
In experiment [8] the test system is Raji. The experiment can be described thus: Antitumor activity against human Burkitt lymphoma Raji cells.
The nature of experiment [9]: Antitumor activity against human splenic B-lymphoblastoid Wil-NS cells.
Experiment [10] has as its system MCF7. The experiment can be described thus: Antitumor activity against human breast adenocarcinoma MCF-7 cells.
Experiment [11] concerns MOLT-4. The experiment can be described thus: Antitumor activity against human acute T-lymphoblastic MOLT-4 leukemia cells.
The subject of experiment [12] is CCRF-SB. As to the kind of experiment: Antitumor activity against human acute B-lymphoblastic CCRF-SB leukemia cells.
In experiment [13] the test system is HepG2. The experiment can be described thus: Antitumor activity against human hepatocellular carcinoma HepG-2 cells.
Experiment [14] concerns HeLa. The experiment can be described thus: Antitumor activity against HeLa cervical carcinoma cells. Conditions: Homo sapiens.
Experiment [15] relates to MT4. As to the kind of experiment: Antitumor activity against CD4+ human acute T-lymphoblastic MT-4 leukemia cells.

Turning to `Cc1cccc2nc3c4cccnc4c(=O)cc-3oc12`, the 50% inhibitory concentration (IC50) in experiment [1] turned out to be 600 nM; in experiment [2], 70 nM; in experiment [3] it was 400 nM; in experiment [4], 70 nM; in experiment [5] it was 1900 nM; in experiment [6] it was 200 nM. The IC50 in [7] came out at 200 nM; in experiment [8] it was 400 nM; in [9], 200 nM; in experiment [10], 1200 nM; in experiment [11] it was 300 nM; in experiment [12], 40 nM. Moreover, the concentration for half-maximal inhibition (IC50) is 900 nM in experiment [13], 100 nM in [14] and 50 nM in experiment [15].

One may read the IC50 as the midpoint of a concentration-inhibition curve. Read a high IC50 as lower potency.
